Measurements reported in US20190002942A1, “ANTIBIOTIC FIIRV 104/18 COMPLEX AND THE ISOLATED INDIVIDUAL FACTORS THEREOF” (Fondazione Istituto Insubrico di Ricerca per la Vita, priority 2015, published 2019).
≈ marks a conversion by molar mass, not a printed value. Where two headings read alike, the source gives them in different places.

What was measured:
[1] = test system: L819 S. aureus Smith ATCC19636; test: MIC, broth microdilution (CLSI); type: cell-based, Staphylococcus aureus
Method: (§1) Inocula are: 2-5×10^5 CFU/mL for Gram positive and Gram negative bacteria; 10^4 CFU/mL for Candida albicans.
(§2) The effect of 30% bovine serum is determined under the same experimental conditions.
(§3) Cultures are incubated at 35° C. in air. After 18-24 hours visual readings are performed and MICs determined. The MIC (Minimal Inhibitory Concentration) is defined as the lower concentration of antibiotic at which there is no visible growth. The strains used are clinical isolates or strains from American Type Culture Collection (ATCC).

[2] = test system: L560 E. faecalis VanA; test: MIC, broth microdilution (CLSI); type: cell-based, Enterococcus faecalis
Method: as §1, §2, §3

[3] = test system: L145 C. albicans; test: MIC, broth microdilution (CLSI); type: cell-based, Candida albicans; conditions: Candida albicans; L145 C. albicans; RPMI; inoculum 10^4 CFU/mL; read-out: MIC
Method: (§4) Antimicrobial activity of the antibiotic FIIRV 104/18 complex is determined by the broth microdilution method according to the procedures published by the Clinical and Laboratory Standards Institute (CLSI), formerly the National Committee for Clinical Laboratory Standards (NCCLS) (document M07-A9). Inocula are: 2-5×10^5 CFU/mL for Gram positive and Gram negative bacteria; 10^4 CFU/mL for Candida albicans.
(§5) The media used are: cation adjusted Mueller Hinton broth (CAMHB) for Staphylococci, Enterococci, Moraxella catarrhalis, Escherichia coli; Todd Hewitt broth (THB) for Streptococci; RPMI 1640 Medium for C. albicans. The effect of 30% bovine serum is determined under the same experimental conditions.
as §3, with “(ATCC). Individual factors of antibiotic FIIRV 104/18 are dissolved in DMSO to obtain a 1000 μg/mL stock solution, and subsequently diluted in water to obtain working solution.” for “(ATCC).”

[4] = test system: Gram-positive susceptible, resistant and multi-resistant pathogenic bacteria; test: Growth inhibition of Gram-positive bacteria (summary); type: cell-based; conditions: Gram positive bacteria: Staphylococci incl. MRSA and MR coagulase-negative, Streptococci, Enterococci incl. VanA
Method: as §4, §5
as §3, with “(ATCC). Individual factors of antibiotic FIIRV 104/18 are dissolved in DMSO to obtain a 1000 μg/mL stock solution, and subsequently diluted in water to obtain working solution.” for “(ATCC).”

[5] = test system: L1577 S. epidermidis; test: MIC, broth microdilution (CLSI); type: cell-based; conditions: Staphylococcus epidermidis
Method: as §1, §2, §3

[6] = test system: L1729 S. haemolyticus MDR; test: MIC, broth microdilution (CLSI); type: cell-based; conditions: Staphylococcus haemolyticus
Method: as §1, §2, §3

[7] = test system: L3030 A. baumannii; test: MIC, broth microdilution (CLSI); type: cell-based; conditions: Acinetobacter baumannii; L3030 A. baumannii; read-out: MIC
Method: as §1, §2, §3

[8] = test system: L568 E. faecium; test: MIC, broth microdilution (CLSI); type: cell-based; conditions: Enterococcus faecium
Method: as §1, §2, §3

[9] = test system: L1730 S. haemolyticus; test: MIC, broth microdilution (CLSI); type: cell-based; conditions: Staphylococcus haemolyticus
Method: as §1, §2, §3

[10] = test system: L47 E. coli, SKF 12140; test: MIC, broth microdilution (CLSI); type: cell-based; conditions: Escherichia coli
Method: as §1, §2, §3

[11] = test system: L49 S. pyogenes C203; test: MIC, broth microdilution (CLSI); type: cell-based; conditions: Streptococcus pyogenes
Method: as §1, §2, §3

[12] = test system: L44 S. pneumoniae; test: MIC, broth microdilution (CLSI); type: cell-based; conditions: Streptococcus pneumoniae
Method: as §1, §2, §3

[13] = test system: L3294 M. catarrhalis; test: MIC, broth microdilution (CLSI); type: cell-based; conditions: Moraxella catarrhalis
Method: as §1, §2, §3

[14] = test system: L559 E. faecalis; test: MIC, broth microdilution (CLSI); type: cell-based; conditions: Enterococcus faecalis
Method: as §1, §2, §3

[15] = test system: L1400 S. aureus MRSA; test: MIC, broth microdilution (CLSI); type: cell-based; conditions: Staphylococcus aureus
Method: as §1, §2, §3

[16] = test system: L100 S. aureus ATCC 6538; test: MIC, broth microdilution (CLSI); type: cell-based; conditions: Staphylococcus aureus, ATCC6538
Method: as §1, §2, §3

[17] = test system: L2048 B. cenocepacia; test: MIC, broth microdilution (CLSI); type: cell-based; conditions: Burkholderia cenocepacia; L2048 B. cenocepacia; read-out: MIC
Method: as §4, §5
as §3, with “(ATCC). Individual factors of antibiotic FIIRV 104/18 are dissolved in DMSO to obtain a 1000 μg/mL stock solution, and subsequently diluted in water to obtain working solution.” for “(ATCC).”

[18] = test system: Staphylococcus aureus Smith ATCC 19636; test: Murine Staphylococcus aureus infection model; type: in vivo, ICR mice
Method: Female ICR mice (Harlan, Italy) weighing 21-24 g are infected intraperitoneally (ip) with 5×10^4 cells of Staphylococcus aureus Smith ATCC 19636 in 0.5 mL of 5% gastric mucine. Antibiotic FIIRV 104/18 factor F795 is administered intravenously (iv) within 10-15 min after infection. […] In: Statistical Methods in Biological Assay, 524-530, (1952) Charles Griffin &Co., Ltd., London].

[19] = test system: L569 E. faecium VanA; test: MIC, broth microdilution (CLSI); type: cell-based, Enterococcus faecium
Method: as §1, §2, §3

COC(=O)c1c(C)cc2c(c1O)[C@]1(O)C(=O)c3cc4c(c(O)c3C(=O)[C@]1(OC)[C@H](O)C2)C(=O)C=C(N[C@H]1O[C@@H](C)[C@H](O[C@@H]2CCC(=O)[C@H](C)O2)[C@@H](O)[C@H]1OC)C4=O [F795, (6R,6aS,14aR)-methyl 11-[(2S,3R,4R,5R,6S)-4-hydroxy-3-methoxy-6-methyl-5-{[(2S,6S)-6-methyl-5-oxotetrahydro-2H-pyran-2-yl]oxy}tetrahydro-2H-pyran-2-ylamino]-1,6,8,14a-tetrahydroxy-6a-methoxy-3-methyl-7,9,12,14-tetraoxo-5,6,6a,7,9,12,14,14a-octahydrobenzo[a]tetracene-2-carboxylate]
MIC ([1]; Staphylococcus aureus, ATCC19636, L819 S. aureus Smith ATCC19636, CAMHB, read-out: MIC): 0.002 µg/mL (≈ 0.00251 µM) | MIC ([1]; Staphylococcus aureus, ATCC19636, L819 S. aureus Smith, +30% SB (bovine serum), read-out: MIC): 0.125 µg/mL (≈ 0.157 µM) | MIC ([2]; Enterococcus faecalis, L560 E. faecalis VanA, +30% SB (bovine serum), read-out: MIC): 0.5 µg/mL (≈ 0.628 µM) | MIC ([2]; Enterococcus faecalis, L560 E. faecalis VanA, CAMHB, read-out: MIC): 0.125 µg/mL (≈ 0.157 µM) | MIC [3]: > 128 µg/mL | antibacterial activity (in words) [4]: very high antibacterial activity | MIC ([5]; L1577 S. epidermidis, CAMHB, read-out: MIC): 0.015 µg/mL (≈ 0.0189 µM) | MIC ([6]; L1729 S. haemolyticus MDR, CAMHB, read-out: MIC): 0.015 µg/mL (≈ 0.0189 µM) | MIC [7]: 16 µg/mL (≈ 20.1 µM) | MIC ([8]; L568 E. faecium, CAMHB, read-out: MIC): 0.25 µg/mL (≈ 0.314 µM) | MIC ([9]; L1730 S. haemolyticus, CAMHB, read-out: MIC): 0.015 µg/mL (≈ 0.0189 µM) | MIC ([10]; L47 E. coli, SKF 12140, CAMHB, read-out: MIC): > 128 µg/mL | MIC ([11]; L49 S. pyogenes C203, THB, read-out: MIC): 0.015 µg/mL (≈ 0.0189 µM) | MIC ([12]; L44 S. pneumoniae, THB, read-out: MIC): 0.015 µg/mL (≈ 0.0189 µM) | MIC ([13]; L3294 M. catarrhalis, CAMHB, read-out: MIC): 0.125 µg/mL (≈ 0.157 µM) | MIC ([14]; L559 E. faecalis, CAMHB, read-out: MIC): 0.25 µg/mL (≈ 0.314 µM) | MIC ([15]; L1400 S. aureus MRSA, CAMHB, read-out: MIC): 0.015 µg/mL (≈ 0.0189 µM) | MIC ([16]; L100 S. aureus ATCC 6538, CAMHB, read-out: MIC): 0.008 µg/mL (≈ 0.0101 µM) | MIC [17]: 32 µg/mL (≈ 40.2 µM) | ED50 ([18]; ATCC19636, read-out: ED50 (50% effective dose), mice infected ip with S. aureus Smith ATCC 19636, iv within 10-15 min after infection, Spearman-Karber): 0.8 mg/kg | MIC ([19]; Enterococcus faecium, L569 E. faecium VanA, +30% SB (bovine serum), read-out: MIC): 2 µg/mL (≈ 2.51 µM) | MIC ([19]; Enterococcus faecium, L569 E. faecium VanA, CAMHB, read-out: MIC): 0.25 µg/mL (≈ 0.314 µM)

CN[C@H](CC(C)C)C(=O)N[C@H]1C(=O)N[C@@H](CC(N)=O)C(=O)N[C@H]2C(=O)N[C@H]3C(=O)N[C@H](C(=O)N[C@H](C(=O)O)c4cc(O)cc(O)c4-c4cc3ccc4O)[C@H](O)c3ccc(c(Cl)c3)Oc3cc2cc(c3O[C@@H]2O[C@H](CO)[C@@H](O)[C@H](O)[C@H]2O[C@H]2C[C@](C)(N)[C@H](O)[C@H](C)O2)Oc2ccc(cc2Cl)[C@H]1O [V, vancomycin, reference compound]
MIC ([1]; L819 S. aureus Smith, +30% SB (bovine serum)): 1 µg/mL (≈ 0.69 µM) | MIC ([1]; Staphylococcus aureus, ATCC19636): 1 µg/mL (≈ 0.69 µM) | MIC ([2]; Enterococcus faecalis): > 128 µg/mL | MIC ([2]; L560 E. faecalis VanA, +30% SB (bovine serum)): >128 µg/mL | MIC [5]: 2 µg/mL (≈ 1.38 µM) | MIC [6]: 2 µg/mL (≈ 1.38 µM) | MIC [8]: 2 µg/mL (≈ 1.38 µM) | MIC [9]: 2 µg/mL (≈ 1.38 µM) | MIC [10]: > 2 µg/mL | MIC [11]: 0.5 µg/mL (≈ 0.345 µM) | MIC [12]: 0.5 µg/mL (≈ 0.345 µM) | MIC [13]: > 2 µg/mL | MIC [14]: 1 µg/mL (≈ 0.69 µM) | MIC ([15]; MRSA): 1 µg/mL (≈ 0.69 µM) | MIC [16]: 1 µg/mL (≈ 0.69 µM) | ED50 ([18]; ATCC19636, read-out: ED50 (50% effective dose)): 0.93 mg/kg | MIC ([19]; Enterococcus faecium): > 128 µg/mL | MIC ([19]; L569 E. faecium VanA, +30% SB (bovine serum)): >128 µg/mL
